Structures are written as SMILES. pIC50: −log10 of the molar value. Like-named read-outs stand apart in the source and are kept apart here.

The target of data set [1] is T1, human progesterone receptor A (PR-A) (Homo sapiens, UniProt P06401).
T1 construct: expressed in transfected cells; host or cells: SK-N-MC human neuroblastoma cells, stably transfected with pRChPR-A-neo and pMMTV-LUC
T1 sequence (P06401 1-769 isoform P06401-2): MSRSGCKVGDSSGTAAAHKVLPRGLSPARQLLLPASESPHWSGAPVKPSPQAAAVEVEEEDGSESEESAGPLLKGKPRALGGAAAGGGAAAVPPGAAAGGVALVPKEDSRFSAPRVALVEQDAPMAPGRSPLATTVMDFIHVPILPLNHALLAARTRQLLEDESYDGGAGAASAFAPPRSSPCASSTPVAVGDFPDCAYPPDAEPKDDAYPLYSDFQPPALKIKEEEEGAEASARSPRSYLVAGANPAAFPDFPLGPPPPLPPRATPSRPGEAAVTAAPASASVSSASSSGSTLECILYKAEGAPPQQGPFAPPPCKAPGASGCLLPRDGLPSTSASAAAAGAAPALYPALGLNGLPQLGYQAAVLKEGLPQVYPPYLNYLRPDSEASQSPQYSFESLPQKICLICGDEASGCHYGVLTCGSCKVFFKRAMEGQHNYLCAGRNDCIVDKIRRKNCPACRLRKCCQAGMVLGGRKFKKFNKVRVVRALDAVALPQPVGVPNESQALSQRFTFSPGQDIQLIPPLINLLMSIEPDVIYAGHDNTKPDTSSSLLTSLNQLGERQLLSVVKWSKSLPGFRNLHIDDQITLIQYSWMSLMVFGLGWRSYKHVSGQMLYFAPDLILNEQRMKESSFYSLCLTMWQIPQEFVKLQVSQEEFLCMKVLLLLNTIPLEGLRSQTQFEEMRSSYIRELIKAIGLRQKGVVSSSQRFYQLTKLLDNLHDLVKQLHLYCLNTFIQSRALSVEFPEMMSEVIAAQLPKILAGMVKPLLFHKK
Briefly: Progesterone receptor-antagonistic action in stable transfectants of SK-N-MC cells with human PR-A and MTV-LUC reporter. The format is cell-based. To be noted: for Emax: read-out: Progesterone receptor A (PR-A) Efficacy; for pIC50: antagonistic activity against 0.1 nmol/l promegestone, LUC reporter, read-out: Progesterone receptor A (PR-A) Potency IC50. The method, then: (§1) Progesterone Receptor-Antagonistic Action in Stable Transfectants of Human Neuroblastoma Cells (SK-N-MC Cells) with the Human Progesterone A or Progesterone B Receptor and an MTV-LUC Reporter Construct
(§2) SK-N-MC cells (human neuroblastoma cells), which have been stably transfected with plasmids, which express the human progesterone receptor B (pRChPR-B-neo) or the human progesterone receptor A (pRChPR-A-neo) and a reporter construct (pMMTV-LUC), were incubated for 24 hours either in the absence (negative control) or in the presence of increasing amounts of the respective test compound (0.01 nmol/l, 0.1 nmol/l, 1 nmol/l, 10 nmol/l, 100 nmol/l and 1 μmol/l), in order to determine the agonistic efficacy. As positive control of reporter gene induction, the cells were treated with the synthetic gestagen promegestone (0.01 nmol/l, 0.1 nmol/l, 1 nmol/l, 10 nmol/l, 100 nmol/l and 1 μmol/l). For determination of the antagonistic activity, the cells were treated with 0.1 nmol/l promegestone and additionally with increasing amounts of the respective test compound (0.01 nmol/l, 0.1 nmol/l, 1 nmol/l, 10 nmol/l, 100 nmol/l and 1 μmol/l). The activity of the LUC reporter gene (LUC=luciferase) was determined in the cell lysates and was measured as RLU (relative light units). All measured values are given as percentage efficacy and as EC50 or IC50 concentrations.
(§3) 11β-(4-Acetylphenyl)-20,20,21,21,21-pentafluoro-17-hydroxy-19-nor-17α-pregna-4,9-dien-3-one and 20,20,21,21,21-pentafluoro-17-hydroxy-11β-[4-(hydroxyacetyl)phenyl]-19-nor-17α-pregna-4,9-dien-3-one, very potent and therefore preferred examples from WO98/34947 and WO2008/058767, were tested as comparative compounds along with the test compound.

For data set [2], the target named is T2, human progesterone receptor B (PR-B) (Homo sapiens, UniProt P06401).
T2 construct: expressed in transfected cells; host or cells: SK-N-MC human neuroblastoma cells, stably transfected with pRChPR-B-neo and pMMTV-LUC
T2 sequence (P06401 1-933): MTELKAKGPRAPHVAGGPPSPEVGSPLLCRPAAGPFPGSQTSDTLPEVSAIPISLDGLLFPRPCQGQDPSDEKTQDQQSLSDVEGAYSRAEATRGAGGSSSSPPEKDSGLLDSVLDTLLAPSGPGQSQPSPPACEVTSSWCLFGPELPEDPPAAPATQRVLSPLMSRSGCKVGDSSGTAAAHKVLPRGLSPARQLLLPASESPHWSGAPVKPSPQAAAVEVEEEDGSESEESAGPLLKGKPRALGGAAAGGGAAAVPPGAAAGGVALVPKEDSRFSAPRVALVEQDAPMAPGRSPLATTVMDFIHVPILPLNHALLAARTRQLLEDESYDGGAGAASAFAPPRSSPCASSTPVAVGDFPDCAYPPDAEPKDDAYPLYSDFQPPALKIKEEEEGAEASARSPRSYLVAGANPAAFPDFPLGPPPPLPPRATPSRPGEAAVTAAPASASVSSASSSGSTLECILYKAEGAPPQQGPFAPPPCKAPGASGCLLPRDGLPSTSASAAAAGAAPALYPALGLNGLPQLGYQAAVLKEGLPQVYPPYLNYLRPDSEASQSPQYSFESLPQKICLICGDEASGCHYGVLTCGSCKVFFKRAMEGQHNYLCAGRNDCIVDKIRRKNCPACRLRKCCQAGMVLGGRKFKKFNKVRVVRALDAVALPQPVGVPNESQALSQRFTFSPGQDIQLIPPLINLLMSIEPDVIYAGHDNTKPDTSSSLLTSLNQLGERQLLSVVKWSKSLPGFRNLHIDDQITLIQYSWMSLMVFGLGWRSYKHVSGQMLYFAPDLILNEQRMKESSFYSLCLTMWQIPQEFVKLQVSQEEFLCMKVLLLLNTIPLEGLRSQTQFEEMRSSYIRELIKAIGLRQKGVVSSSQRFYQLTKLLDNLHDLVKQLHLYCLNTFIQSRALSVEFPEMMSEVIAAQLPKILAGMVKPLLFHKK
Briefly: Progesterone receptor-antagonistic action in stable transfectants of SK-N-MC cells with human PR-B and MTV-LUC reporter. Format: cell-based. To be noted: for Emax: read-out: Progesterone receptor B (PR-B) Efficacy; for pIC50: antagonistic activity against 0.1 nmol/l promegestone, LUC reporter, read-out: Progesterone receptor B (PR-B) Potency IC50. The method, then:
as §1, §2, §3

Data set [3] can be described thus: Metabolic stability in human liver microsomes (HLM). The format is in vitro ADME. To be noted: HLM 0.5 mg/ml protein, 1 μM, 37° C., pH 7.4; well-stirred model, phase I reactions. The method, then: Metabolic Stability of (11β,17β)-17-hydroxy-11-[4-(methylsulphonyl)phenyl]-17-(pentafluoroethyl)estra-4,9-dien-3-one and (11β,17β)-17-hydroxy-11-[4′-(methylsulphonyl)-biphenyl-4-4-yl]-17-(pentafluoroethyl)estra-4,9-dien-3-one in Human Liver Microsomes (HLM)
Isolated human liver microsomes (HLM) were used for assessing the metabolic stability of compounds of general formula I.
Incubations were carried out with 2.4 ml of HLM solution (0.5 mg/ml protein content), 30 μl of the test compound (final concentration 1 μM) and 0.6 ml of the cofactor mixture (=NADPH-generating system of 3 IU glucose-6-phosphate dehydrogenase, 14.6 mg glucose-6-phosphate, 1.2 mg NADP) at 37° C. in 100 mM phosphate buffer at pH 7.4. Samples are taken at 6 time points (2-60 min), precipitated with an equal volume of methanol and the recovery of the test substances used in the supernatant is determined by LC-MS/MS analysis. The intrinsic clearance of the substance in the liver microsome preparation can be calculated from the half-life found for the breakdown of the substance. Based on this, together with various physiological characteristics according to the well-stirred model, it is then possible to predict a (metabolic) in vivo clearance with respect to phase I reactions. […]

[4] abbreviates: antagonistic efficacy against 0.1 nmol/l promegestone, SK-N-MC cells, 24 hours.

On to `CSc1ccc([C@H]2C[C@@]3(C)[C@@H](CC[C@@]3(O)C(F)(F)C(F)(F)F)[C@@H]3CCC4=CC(=O)CCC4=C32)cc1` [Example 1, (11β,17β)-17-hydroxy-11-[4-(methylsulphanyl)phenyl]-17-(pentafluoroethyl)estra-4,9-dien-3-one], for which the Emax in data set [1] (SK-N-MC, 24 h) was 100%; in data set [2] (SK-N-MC, 24 h) it was 100%. For the same molecule, in data set [2] (SK-N-MC cells, 24 hours), the pIC50 is 10.92.

Consider `CSc1ccc(-c2ccc([C@H]3C[C@@]4(C)[C@@H](CC[C@@]4(O)C(F)(F)C(F)(F)F)[C@@H]4CCC5=CC(=O)CCC5=C43)cc2)cc1` [Example 9, (11β,17β)-17-Hydroxy-11-[4′-(methylsulphanyl)biphenyl-4-yl]-17-(pentafluoroethyl)estra-4,9-dien-3-one], for which the Emax in data set [1] (setting [4]) and in data set [2] (setting [4]) was 100% throughout.

`C[C@]12C[C@H](c3ccc(-c4ccc(S(C)(=O)=O)cc4)cc3)C3=C4CCC(=O)C=C4CC[C@H]3[C@@H]1CC[C@@]2(O)C(F)(F)C(F)(F)F` [Example 10, (11β,17β)-17-hydroxy-11-[4′-(methylsulphonyl)biphenyl-4-yl]-17-(pentafluoroethyl)estra-4,9-dien-3-one]: the Emax in data set [1] (setting [4]) and in data set [2] (setting [4]) was 100% throughout. In addition, the “(metabolic) in vivo clearance in humans predicted” value in data set [3] is under 0.17 mL/min/kg.

Regarding `C[C@]12C[C@H](c3ccc(-c4ccc(S(C)(=N)=O)cc4)cc3)C3=C4CCC(=O)C=C4CCC3C1CC[C@@]2(O)C(F)(F)C(F)(F)F` (stereo partly drawn) [Example 12, (11β,17β)-17-hydroxy-11-[4′-(RS-methylsulphonimidoyl)biphenyl-4-yl]-17-(pentafluoroethyl)estra-4,9-dien-3-one], the pIC50 in data set [1] (SK-N-MC cells, 24 hours) is 10.10; in data set [2] (SK-N-MC cells, 24 hours), 10.10. Besides, the Emax in data set [1] (setting [4]) and in data set [2] (setting [4]) was 100% in each case.

With `CN(C)S(=O)(=O)c1ccc(-c2ccc([C@H]3C[C@@]4(C)[C@@H](CC[C@@]4(O)C(F)(F)C(F)(F)F)[C@@H]4CCC5=CC(=O)CCC5=C43)cc2)cc1` [Example 14, 4′-[(11β,17β)-17-hydroxy-3-oxo-17-(pentafluoroethyl)estra-4,9-dien-11-yl]-N,N-dimethylbiphenyl-4-sulphonamide], the Emax in data set [1] (setting [4]) and in data set [2] (setting [4]) was 100% each time.

In the case of `CCS(=O)(=O)c1ccc([C@H]2C[C@@]3(C)C(CC[C@@]3(O)C(F)(F)C(F)(F)F)C3CCC4=CC(=O)CCC4=C32)cc1` (stereo partly drawn) [Example 5, (11β,17β)-11-[4-(ethylsulphonyl)phenyl]-17-hydroxy-17-(pentafluoroethyl)estra-4,9-dien-3-one], the negative-log IC50 (pIC50) in data set [1] (SK-N-MC cells, 24 hours) was 10.00; in data set [2] (SK-N-MC cells, 24 hours), 10.05. In addition, the Emax in data set [1] (setting [4]) and in data set [2] (setting [4]) was 100% each time.

Turning to `C[C@]12C[C@H](c3ccc(SCc4ccccc4)cc3)C3=C4CCC(=O)C=C4CCC3C1CC[C@@]2(O)C(F)(F)C(F)(F)F` (stereo partly drawn) [Example 6, (11β,17β)-11-[4-(benzylsulphanyl)phenyl]-17-hydroxy-17-(pentafluoroethyl)estra-4,9-dien-3-one], the pIC50 in data set [1] (SK-N-MC cells, 24 hours) is 9.70; in data set [2] (SK-N-MC cells, 24 hours), 9.64. Moreover, the Emax in data set [1] (setting [4]) and in data set [2] (setting [4]) was 100% in each case.

With `CC(=O)c1ccc(C2CC3(C)C(CCC3(O)C(F)(F)C(F)(F)F)C3CCC4=CC(=O)CCC4=C23)cc1` (stereo not drawn) [11β-(4-Acetylphenyl)-20,20,21,21,21-pentafluoro-17-hydroxy-19-nor-17α-pregna-4,9-dien-3-one, reference compound], the Emax in data set [1] (setting [4]) and in data set [2] (setting [4]) was 100% in each case.

The record behind these values is patent publication US8278469B2, “17-hydroxy-17-pentafluoroethyl-estra-4,9(10)-dien-11-aryl derivatives, method of production thereof and use thereof for the treatment of diseases” (Bayer Pharma Aktiengesellschaft, priority 2009, dated 2012).
